Where a name gives a salt, the structure may show the parent alone. Read-outs that look alike come from different tables or passages of the source.
Tests used:
primary pulmonary SMCs = assay: Second experiment: primary pulmonary SMCs induced to contract with 10 μM phenylephernine (PE); assay type: cell-based; conditions: PE 10 μM; for synergy in combination with SIN: bitter agent with low SIN doses
Method: In a second experiment, primary pulmonary SMCs were induced to contract using 10 μM phenylephernine (PE). PE was added after a baseline reading. The test compounds were added after a second timepoint and 800-1300 cells were assayed per trace, starting with FIG. 6.

[1] = test system: human primary smooth muscle cells (PVSMC); conditions: endothelin-1 100 nM; for synergy in combination with SIN: bitter agent 1 mM with low SIN doses (10 μM)
Method: An in vitro model using human primary smooth muscle cells (PVSMC) were stimulated to contract with 100 nM endothelin-1, then treated with various test compounds alone and in combination with the PDE-5 inhibitor sildenafil, approved to treat PAH. The concentration used were 3-CQL at 1 mM, DB at 1 mM, DS at 1 mM and SIN (sildenafil) at 10 μM. The controls were 0.5% and 1% DMSO in media because DB is water-soluble but DS, 3-CQL and SIN are DMSO soluble.

[2] = Solubility of test compounds (choice of control media); conditions: water or DMSO
[3] = cited from earlier work
TAS2R subtypes = conditions: cited from earlier work
[4] = SIN by itself at low doses (10 μM)

Molecule | synergy in combination with SIN (primary pulmonary SMCs) | synergy in combination with SIN [1] | solubility [2] | TAS2R subtypes activated (number) (TAS2R subtypes) | other results
CC[N+](CC)(CC(=O)Nc1c(C)cccc1C)Cc1ccccc1 [DS, Denatonium Saccharide] | synergy | synergy | – | – | –
CCCc1nn(C)c2c(=O)[nH]c(-c3cc(S(=O)(=O)N4CCN(C)CC4)ccc3OCC)nc12 [SIN, sildenafil, reference compound] | – | – | DMSO soluble | – | in vitro efficacy against PE-induced contraction (primary pulmonary SMCs; SIN at 100 μM): extremely effective; in vitro efficacy against PE-induced contraction (primary pulmonary SMCs; [4]): not effective; efficacy in reversal from peak contraction of the PVSMCs ([1]; SIN at 100 μM): extremely effective; efficacy in reversal from peak contraction of the PVSMCs [1, 4]: not effective
CN1CCc2cccc3c2[C@H]1Cc1ccc(O)c(O)c1-3 [Apomorphine, 5,6,6a,7-Tetrahydro-6-methyl-4H-dibenzo[de,g]quinoline-10,11-diol hydrochloride] | – | – | – | – | oral availability [3]: ~4%
CC[N+](CC)(CC(=O)Nc1c(C)cccc1C)Cc1ccccc1.O=C([O-])c1ccccc1 [DB, Denatonium Benzoate] | synergy | synergy | – | 8 | potency in reversal from peak contraction of the PVSMCs ([1]; DB alone (1 mM)): not potent
quinine [reference compound] | – | – | – | 9 | –
O=C(/C=C/c1ccc(O)c(O)c1)O[C@@H]1C[C@]2(O)C[C@@H](OC2=O)[C@@H]1O [3-CQL, 3-caffeoylquinic-1,5-lactone] | possibly | synergy | DMSO soluble | – | –

Source: patent US12268660B2, “Oral pharmaceutical formulations of bitter compounds for pulmonary hypertension” (Aardvark Therapeutics Inc., priority 2018, dated 2025)
